In the NIST ThermoML archive (doi:10.1016/j.jct.2018.02.013):

Tests used:
[1] = wn = mass fraction of the nth substance listed; conditions: 101 kPa, Liquid, w2 = 0.1415; for mass density: Vibrating tube method; for viscosity: Cone and plate viscometry; for thermal conductivity: transient hot wire; for electrical conductivity: Direct current cell with electrodes
[2] = molar heat capacity at constant pressure; wn = mass fraction of the nth substance listed; conditions: 101 kPa, Liquid, Small sample (50 mg) DSC, w2 = 0.1415

CCCCCCCCCC(=O)[O-].CCCCCCCCCCCCCC[P+](CCCCCC)(CCCCCC)CCCCCC [trihexyltetradecylphosphonium decanoate] + O
Conditions | electrical conductivity [S/m] | mass density [kg/m3] | molar heat capacity at constant pressure [J/K/mol] | thermal conductivity [W/m/K] | viscosity [mPa·s]
[1], 298.15 K | – | 899.1 | – | – | –
[1], 298.2 K | – | – | – | – | 91.87
[1], 298.55 K | – | – | – | 0.1861 | –
[1], 299.2 K | 0.03 | – | – | – | –
[1], 303.15 K | – | 895.8 | – | – | –
[1], 303.2 K | – | – | – | – | 76.66
[1], 303.6 K | 0.0369 | – | – | – | –
[1], 307.51 K | – | – | – | 0.1849 | –
[1], 308.2 K | – | – | – | – | 64.23
[1], 308.8 K | 0.0436 | – | – | – | –
[1], 313.15 K | – | 889 | – | – | –
[1], 313.2 K | 0.0524 | – | – | – | 53.34
[1], 317.84 K | – | – | – | 0.1829 | –
[1], 318.2 K | – | – | – | – | 45
[1], 318.8 K | 0.0639 | – | – | – | –
[1], 323.15 K | – | 882.3 | – | – | –
[1], 323.2 K | – | – | – | – | 37.98
[1], 323.6 K | 0.0733 | – | – | – | –
[1], 328.2 K | – | – | – | – | 32.86
[1], 328.68 K | – | – | – | 0.1809 | –
[1], 328.8 K | 0.0865 | – | – | – | –
[1], 333.15 K | – | 875.4 | – | – | –
[1], 333.2 K | 0.1 | – | – | – | 28.28
[1], 337.66 K | – | – | – | 0.1799 | –
[1], 338.2 K | – | – | – | – | 24.62
[1], 338.8 K | 0.118 | – | – | – | –
[1], 343.15 K | – | 868.2 | – | – | –
[1], 343.2 K | – | – | – | – | 21.4
[1], 343.8 K | 0.132 | – | – | – | –
[1], 347.13 K | – | – | – | 0.1785 | –
[1], 348.2 K | – | – | – | – | 18.91
[1], 348.9 K | 0.156 | – | – | – | –
[1], 353.15 K | – | 860.8 | – | – | –
[1], 353.2 K | – | – | – | – | 17.1
[1], 358.2 K | – | – | – | 0.1762 | 15.4
[1], 363.15 K | – | 853.7 | – | – | –
[1], 363.2 K | – | – | – | – | 13.95
[1], 368.2 K | – | – | – | – | 12.08
[2], 298.15 K | – | – | 313.81 | – | –
[2], 303.15 K | – | – | 319.48 | – | –
[2], 308.15 K | – | – | 323.73 | – | –
[2], 313.15 K | – | – | 326.79 | – | –
[2], 318.15 K | – | – | 328.54 | – | –
[2], 323.15 K | – | – | 332.14 | – | –
[2], 328.15 K | – | – | 335.3 | – | –
[2], 333.15 K | – | – | 338.57 | – | –
[2], 338.15 K | – | – | 341.41 | – | –
[2], 343.15 K | – | – | 344.47 | – | –
[2], 348.15 K | – | – | 348.72 | – | –
[2], 353.15 K | – | – | 351.99 | – | –
[2], 358.15 K | – | – | 355.6 | – | –
[2], 363.15 K | – | – | 360.72 | – | –
